Experimental data published in patent US12508261B2, “Methods of treating depression with vortioxetine” (Rundle Research LLC, priority 2017, dated 2025).
Where “and” joins values, the source holds several entries; their conditions need not be identical. Equal entries are not always repeated. Where two headings read alike, the source gives them in different places.

Test: Clinical pharmacokinetic study (RUN-001): vortioxetine 5 mg once daily for 29 days, then 28 days washout, obese vs normal-weight subjects
Assay type: in vivo, human
Settings: for Observed Clss: (5 mg/day)/AUC29; for Predicted CLss: (5 mg/day)/Css; for Observed accumulation ratio: AUC29/AUC1; for Predicted accumulation ratio: from elimination rate constant and 1 day dose interval
Method: To test if the obese patients would require different washout guidelines for preventing serotonin syndrome, 16 obese subjects (BMI≥35) and 13 normal subjects (BMI<25) completed a clinical trial where they were administered daily with low doses (5 mg/day) of vortioxetine for 29 days in a controlled study. All subjects were subsequently tracked for 28 days after discontinuing vortioxetine on day 29. Blood samples were collected and processed according to standard techniques.
The normal-weight control group consisted of healthy male and female volunteers aged 18 to 45 years. Their body mass index (BMI) values fell in the range of […]. […] Normal weight and obese subjects were matched as closely as possible for gender and age.
CYP2D6 genotype status was determined from whole blood samples drawn from each subject. Known alleles of CYP2D6 were tested for, as well as the presence of gene duplications (LabCorp, Inc.). CYP2D6 metabolizer status was categorized as ultra-rapid, extensive, intermediate, or poor. Ultra-rapid and poor metabolizers were not included in the study.
All subjects received vortioxetine, 5 mg once daily in the morning, for 29 days. The first dose was on Day 1, and the last dose was on Day 29. Blood sampling continued for another 28 days after the last dose, through Day 57.
Subjects spent 12 hours in the study unit on Day 1 (first dose of vortioxetine) and Day 29 (last dose of vortioxetine). On those two study days, venous blood samples (7 mL each) were drawn prior to the dose of vortioxetine, and at 1, 2, 4, 6, 8, 10, and 12 hours after dosage.
During the 29-day period of daily vortioxetine administration, subjects returned to the study unit in the morning of the following study days: 2, 3, 5, 8, 10, 12, 15, 17, 19, 22, 24, 26, and 29. At each visit, a single venous blood sample (7 mL) was drawn before the daily dose of vortioxetine. Subjects underwent a brief interview to assess subjective effects and possible adverse events. Subjects were then discharged until the next scheduled visit. They were provided with vortioxetine doses sufficient for daily morning administration until the next visit. No more than 2 consecutive doses of vortioxetine were taken on an outpatient basis.
On Day 29 (the final dose of vortioxetine), subjects spent 12 hours in the study unit as described above. They returned to the study unit for a single blood sample on the mornings of the following Days: 30, 31, 33, 36, 38, 40, 43, 45, 47, 50, 52, 54, and 57.
Plasma concentrations of vortioxetine were determined by liquid chromatography—mass spectrometry using a Shimadzu HPLC system coupled to a Sciex API-4000 mass spectrometer.
The internal standard (vortioxetine-d8) was added to calibration standards, quality control samples, and unknown study samples. All samples were extracted with methyl tert-butyl ether. The organic phase was separated and evaporated to dryness; the reconstituted extract was injected into the HPLC system. The HPLC column was a Unison UK-C18, 50 mm×2 mm, 3 micron particle size. The mobile phase consisted of an organic component (0.1% formic acid in acetonitrile) and an aqueous component (0.1% formic acid and 2 mM ammonium acetate in water). This was delivered in gradient mode at a net flow rate of 0.4 mL/min, with the organic fraction varying from 40% to 96%. m/z monitored were: 299.1/150.1 for vortioxetine, and 307.1/153 for vortioxetine-d8. The limit of quantitation was 0.1 ng/mL. […] All samples from a given study subject were extracted and analyzed at the same time using the same calibration standards.
Based on the clinical trials discussed above, several equations were derived which allow an individual to calculate the washout period (i.e., the time between stopping vortioxetine and initiating treatment with an MAOI). Data points to consisted of pre-dose plasma vortioxetine concentration (C) on each study day (t), both during (Days 1-29) and after (Days 30-57) the period of vortioxetine administration. […]

[1] = Normal-weight subjects, mean ± SD

Css (Normal-weight subjects, 5 mg/day, mean ± SD): 3.75 ± 1.72 ng/mL
Observed Clss [1]: 903 ± 450 mL/min
Predicted CLss [1]: 1172 ± 679 mL/min
Observed accumulation ratio [1]: 4.46 ± 1.10
Predicted accumulation ratio [1]: 3.72 ± 0.77
Css (Obese subjects, 5 mg/day, mean ± SD): 4.23 ± 1.68 ng/mL
Observed Clss (Obese subjects, mean ± SD): 809 ± 331 mL/min
Predicted CLss (Obese subjects, mean ± SD): 935 ± 362 mL/min
Observed accumulation ratio (Obese subjects, mean ± SD): 5.24 ± 1.86
Predicted accumulation ratio (Obese subjects, mean ± SD): 5.22 ± 1.75
half-life (both sexes, human, plasma, 5 mg/day, Normal-weight subjects, 5 mg/day, mean ± SD, read-out: Washout half-life (converted)): 53 h
half-life (both sexes, human, plasma, 5 mg/day, Obese subjects (BMI>=35), 5 mg/day, mean ± SD, read-out: Washout half-life (converted)): 78.2 h
half-life (both sexes, human, plasma, 5 mg/day, normal weight patients, read-out: elimination half-life (converted)): 53 h
concentration at 504 h (both sexes, human, plasma, 5 mg/day, normal patients (non-obese and/or normal CYP2D6 metabolizers), read-out: vortioxetine remaining in the blood plasma 21 days after stopping): 0.54 ng/mL
AUC(0-t) (both sexes, human, plasma, oral, 5 mg/day, Normal-weight subjects, 5 mg/day, mean ± SD, read-out: AUC0-24 Day 1): 24.8 ± 8.1 ng·h/mL
AUC(0-t) (both sexes, human, plasma, oral, 5 mg/day, Normal-weight subjects, 5 mg/day, mean ± SD, read-out: AUC0-24 Day 29): 112 ± 48.7 ng·h/mL
half-life (both sexes, human, plasma, oral, 5 mg/day, Obese subjects (BMI>=35), 5 mg/day, mean ± SD, read-out: Accumulation half-life (converted)): 79.7 h
AUC(0-t) (both sexes, human, plasma, oral, 5 mg/day, Obese subjects, 5 mg/day, mean ± SD, read-out: AUC0-24 Day 1): 22.6 ± 4.2 ng·h/mL
AUC(0-t) (both sexes, human, plasma, oral, 5 mg/day, Obese subjects, 5 mg/day, mean ± SD, read-out: AUC0-24 Day 29): 119 ± 46.3 ng·h/mL
half-life (both sexes, human, plasma, oral, 5 mg/day, normal subjects, read-out: plasma elimination half-life, range): 30 to 80 h
half-life (both sexes, human, plasma, oral, 5 mg/day, obese subjects, read-out: plasma elimination half-life, range): 54 to 171 h
half-life (human, plasma, 5 mg/day, one obese subject, CYP2D6 intermediate metabolizer (FIG. 8), read-out: accumulation half-life (converted)): 173 h
half-life (human, plasma, 5 mg/day, one obese subject, CYP2D6 intermediate metabolizer (FIG. 8), read-out: washout half-life (converted)): 168 h
half-life (human, plasma, im, 5 mg/day, individual subject, Normal cohort (BMI<25), IM, read-out: T1/2 (converted)): 71.8 h
half-life (human, plasma, im, 5 mg/day, individual subject, Obese cohort (BMI>=35), IM, read-out: T1/2 (converted)): 171 h
Css (individual subject, Normal cohort (BMI<25), IM, 5 mg/day): 7.8 ng/mL
Css (individual subject, Obese cohort (BMI>=35), IM, 5 mg/day): 9.27 ng/mL
washout period needed to attain about 0.14% of the initial plasma concentration (obese individuals, Equation 2): 31.5 days
time with measurable drug plasma concentrations after discontinuing vortioxetine (obese subjects, 5 mg/day): at least 28 days
SMILES: Cc1ccc(Sc2ccccc2N2CCNCC2)c(C)c1 [vortioxetine]
Css (individual subjects, Normal cohort (BMI<25), EM, 5 mg/day): 2.01 ng/mL and 3.31 ng/mL and 3.29 ng/mL and 3.51 ng/mL and 4.06 ng/mL and 3.21 ng/mL and 1.4 ng/mL and 1.54 ng/mL and 5.24 ng/mL and 5.42 ng/mL and 4.14 ng/mL and 3.13 ng/mL
Css (individual subjects, Obese cohort (BMI>=35), EM, 5 mg/day): 4.32 ng/mL and 4.58 ng/mL and 2.08 ng/mL and 4.57 ng/mL and 1.97 ng/mL and 3.44 ng/mL and 4.8 ng/mL and 4.75 ng/mL and 4.1 ng/mL and 3.22 ng/mL and 3.39 ng/mL and 3.38 ng/mL and 4.66 ng/mL and 4.85 ng/mL
